Assay results: publication PMC6646960 (ACS Chemical Biology, 2019)

Molecular target: T1, DC-SIGN (Homo sapiens, UniProt Q9NNX6)
T1 sequence (Q9NNX6 254-404): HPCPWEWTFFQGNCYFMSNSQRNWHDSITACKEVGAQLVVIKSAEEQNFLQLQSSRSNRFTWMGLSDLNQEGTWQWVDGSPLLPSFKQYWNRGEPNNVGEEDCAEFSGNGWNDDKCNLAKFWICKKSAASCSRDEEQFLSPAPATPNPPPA
Assay: 1H-15N HSQC NMR titration
Format: binding

- Kd: 4.1 ± 0.7 mM
SMILES: C[C@@H]1OC(O)[C@@H](O)[C@H](O)[C@@H]1O (stereo partly shown) [compound 4, Fuc]
